Laboratory results from patent publication US20110112308A1 (NOVARTIS AG, priority 2006, published 2011).
Where a name gives a salt, the structure may show the parent alone.

Key:
[1] = Equilibration in solvents and buffers: form conversion
[2] = Approximate solubility in water and at pH 1 (supplemental testing); format: physicochemical; settings: for Form by XRPD of solid residue, Water: after equilibration in water > 20 hours
Method: (§1) An approximate solubility of the below-listed salts was determined in water and at pH 1 by suspending 5-15 mg of the salt in 1 mL of solvent. The samples were allowed to equilibrate at ambient temperature for at least 20 hours. The supernatant was filtered and used for the solubility determination, which was done gravimetrically, for the aqueous solubility, and by UV-VIS spectroscopy for pH 1. The solid residue was analyzed by XRPD. […] They were subsequently analyzed by XRPD and TGA, if the latter deemed necessary. Only irreversible or slowly reversible events can be detected.

[3] = Solid samples held at 93% r.h. (XRPD, TGA); format: physicochemical; settings: 93% r.h., 10 days
Method: as §1

[4] = Solid-state stability; format: physicochemical; settings: for Bulk stability (XRPD): 1 week
Method: (§2) All samples were prepared/diluted to a concentration of 0.2 mg/mL in methanol prior to analysis by HPLC. A freshly prepared sample of each salt was used as the reference standard for external standard calibration analysis.

[5] = pH of saturated solution or 1% suspension in water; format: physicochemical; settings: In pH = 6.8 buffer
[6] = Intrinsic dissolution rate, rotation disk method; format: physicochemical; settings: for Intrinsic Dissolution Rate: 37° C., 200 r.p.m.
Method: Intrinsic Dissolution: […] […] Pellets of the other salts remained intact for at least several minutes enabling the determination of the intrinsic dissolution rate. Dissolution rate studies were performed using the rotation disk method ([…] Instrument). A single rotation speed of 200 r.p.m. was used to dissolve drug substance into a 500 mL vessel at 37° C. The solution was continuously pumped through a UV cell measurement and returned to the dissolution vessel.

[7] = Stability of mixtures with excipients; format: physicochemical
Method: as §2

[8] = pH of saturated solution or 1% suspension in water; format: physicochemical; settings: room temperature
Method: pH Value: The pH at room temperature of a saturated solution or 1% suspension of the drug substance in water was recorded.

[9] = Solution stability (HPLC); format: physicochemical
Method: as §2

[10] = Bulk stability, 2 weeks, 50° C.
[11] = Bulk stability, 2 weeks, 50° C./20% water
[12] = Bulk stability, 2 weeks, 50° C./75% r.h.
[13] = Light study, 1200 kLux (300-800 nm)
[14] = Mixture 1: 50% PVP + 50% Crospovidone, 50° C./75% r.h., 2 weeks
[15] = Mixture 2: 50% Starch 1500 + 5% MCC 102, 50° C./75% r.h., 2 weeks
[16] = Mixture 3: 5% PVP + 5% Crospovidone + 10% Starch 1500 + 80% MCC 102, 50° C./75% r.h., 2 weeks
[17] = Mixture 4: 99% Lactose + 1% BHT/BHA, 50° C./75% r.h., 2 weeks
[18] = Mixture 5: 99% Mannitol + 1% BHT/BHA, 50° C./75% r.h., 2 weeks
[19] = Mixture 6: 50% Mannitol + 47% HPCLH21 + 1% BHT/BHA + 2% Magnesium Stearate, 50° C./75% r.h., 2 weeks
[20] = Mixture 7: 50% Cetyl Alcohol + 49% HPCLH21 + 1% Magnesium Stearate, 50° C./75% r.h., 2 weeks
[21] = Mixture 8: 100% PEG 3350, 50° C./75% r.h., 2 weeks
[22] = 2 mg/mL in methanol, 1 week at 50° C.
[23] = 2 mg/mL in water, 1 week at 50° C.
[24] = 2 mg/mL, 100 mM lactate buffer pH 3.5, 1 week at 50° C.
[25] = 2% in 0.5% HPMC 4000, 1 day at RT
[26] = 2% in 0.5% Klucel HF, 1 day at RT
[27] = 2% in 0.8% Tween 80, 1 day at RT
[28] = 5% solution, 1 day at RT (diluted 1:100 in pH 6.8 buffer)

## Cc1[nH]c2ccccc2c1CCNCc1ccc(/C=C/C(=O)NO)cc1 [Form A of the mesylate salt]
[1]; 0.1 N HCl
  conversion upon equilibration: to the hydrochloride salt
[1]; phosphate buffer (pH=6.8)
  conversion upon equilibration: to the free base
[1]; water / aqueous solutions
  conversion upon equilibration: converts to form B

## 2:1 malate (hemi-malate) salt of N-hydroxy-3-[4-[[[2-(2-methyl-1H-indol-3-yl) ethyl]amino]methyl]phenyl]-2E-2-propenamide
[2]
  approximate aqueous solubility: ~1400 µg/mL
  Form by XRPD of solid residue, Water: No change
[2]; EQ t > 20 hours, ambient temperature, UV-VIS
  S (approximate solubility), pH 1: 0.42 mg/mL
[2]; EQ t > 20 hours, ambient temperature, gravimetric
  S (approximate solubility), Water: 1380 µg/mL
[2]; listed as malate
  Form by XRPD of solid residue, Water: No structural change
[3]
  Solid State (EQ 93% r.h.) Form by XRPD: No change

## 2:1 L-tartarate salt of N-hydroxy-3-[4-[[[2-(2-methyl-1H-indol-3-yl)ethyl]amino]methyl]phenyl]-2E-2-propenamide
[4]; 80° C.
  Bulk stability (XRPD): no change
[4]; 80° C./75% r.h.
  Bulk stability (XRPD): no change
[4]; [10]
  % DP (total degradation products): 0.84 % area
  assay: [99.48]
[4]; [11]
  % DP (total degradation products): 1.61 % area
  assay: [97.07]
[4]; [12]
  % DP (total degradation products): 1.36 % area
  assay: [97.66]
[4]; [13]
  % DP (total degradation products): 0.82 % area
  assay: [100.4]
[5]
  pH of saturated solution: 5.57
[6]
  intrinsic dissolution (rate), in words: good
[6]; HCl 0.1N
  Intrinsic Dissolution Rate: 1.16 mg min^−1 cm^−2
[6]; Water, free base pellet disintegrated, not true intrinsic rate
  Intrinsic Dissolution Rate: 0.38 mg min^−1 cm^−2
[7]; [14]
  % DP (total degradation products): 1.2 % area
  % DS (drug substance): 98.8 % area
[7]; [15]
  % DP (total degradation products): 1.3 % area
  % DS (drug substance): 98.7 % area
[7]; [16]
  % DP (total degradation products): 1.3 % area
  % DS (drug substance): 98.7 % area
[7]; [17]
  % DP (total degradation products): 1.3 % area
  % DS (drug substance): 98.7 % area
[7]; [18]
  % DP (total degradation products): 1.3 % area
  % DS (drug substance): 98.7 % area
[7]; [19]
  % DP (total degradation products): 1.3 % area
  % DS (drug substance): 98.7 % area
[7]; [20]
  % DP (total degradation products): 1.3 % area
  % DS (drug substance): 98.7 % area
[7]; [21]
  % DP (total degradation products): 1.3 % area
  % DS (drug substance): 98.7 % area
[7]; Standard, freshly prepared
  % DP (total degradation products): 0.6 % area
  % DS (drug substance): 99.4 % area
[7]; after 2 weeks at 50° C./75% r.h.
  stability with all excipient mixtures tested, in words: very good stability
[8]
  pH of saturated solution: 6.07
[9]; 2 mg/mL in 100 mM lactate buffer, pH 3.5
  pH of initial mixture: 3.58
[9]; [22]
  % DP (total degradation products): 0.86 % area
  CL (appearance): A↓
  assay: [100.5]
[9]; 2 mg/mL in water
  pH of initial mixture: 6.82
[9]; [23]
  % DP (total degradation products): 1.21 % area
  CL (appearance): A↓
  assay: [98.91]
[9]; [24]
  % DP (total degradation products): 1.53 % area
  CL (appearance): A↓*
[9]; 2 mg/mL, 100 mM lactate buffer pH 3.5, 1 week at 50° C., external standard
  assay: [96.89]
[9]; 2% in 0.5% CMC, 1 day at RT
  % DP (total degradation products): 0.62 % area
  CL (appearance): A↓↓
  assay: [79.98]
[9]; [25]
  % DP (total degradation products): 0.54 % area
  assay: [97.54]
[9]; [26]
  % DP (total degradation products): 0.58 % area
  assay: [96.39]
[9]; [27]
  % DP (total degradation products): 0.54 % area
  assay: [96.60]
[9]; [28]
  % DP (total degradation products): 0.71 % area
  CL (appearance): A↓
  assay: [98.39]
[9]; both in solution and in the solid state
  stability characteristics, in words: very good stability
[9]; unstressed baseline of the stability study
  Unstressed (% Area): 99.62% Area
